Experimental data from the supplement of paper PMC10307832.

How the values were obtained:
Assay in all cases: relative viability (nuclei count vs DMSO), 5 days (fraction); higher = more cells survive
BAM7 + Linsitinib = compound: CCOC1=CC=CC=C1N=NC2=C(NN(C2=O)C3=NC(=CS3)C4=CC=CC=C4)C [BAM7] + C[C@]1(O)C[C@@H](c2nc(-c3ccc4ccc(-c5ccccc5)nc4c3)c3c(N)nccn32)C1 [Linsitinib] (partner 1 µM)
Procedure, shortened: (§1)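 A single step with final 0.05% Triton X-100, 1% formaldehyde and 1 ug/ml Hoechst fixed the cells and stained nuclei 5 days after treatment. Lung cancer cell lines in 1536-well plates had been treated by pin tool the day after seeding with one drug alone or a fixed anchor-drug dose plus five library-drug doses (not always all listed) in √10 steps, and nuclei were counted on 4× images. Relative viability is the ratio of nuclei in treated wells to nuclei in vehicle wells, taken as the median of duplicate plates.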

BAM7 + Dasatinib = compound: CCOC1=CC=CC=C1N=NC2=C(NN(C2=O)C3=NC(=CS3)C4=CC=CC=C4)C [BAM7] + Cc1nc(Nc2ncc(C(=O)Nc3c(C)cccc3Cl)s2)cc(N2CCN(CCO)CC2)n1 [Dasatinib] (partner 0.075 µM)
Procedure, shortened: as §1

BAM7 + Pemetrexed = compound: CCOC1=CC=CC=C1N=NC2=C(NN(C2=O)C3=NC(=CS3)C4=CC=CC=C4)C [BAM7] + Nc1nc2[nH]cc(CCc3ccc(C(=O)N[C@@H](CCC(=O)O)C(=O)O)cc3)c2c(=O)[nH]1 [Pemetrexed] (partner 0.2 µM)
Procedure, shortened: as §1

[1] = compound: CCn1c(-c2nonc2N)nc2c(C#CC(C)(C)O)ncc(OC[C@H]3CCCNC3)c21 + CS(=O)(=O)CCNCc1ccc(-c2ccc3ncnc(Nc4ccc(OCc5cccc(F)c5)c(Cl)c4)c3c2)o1 [Lapatinib] (partner 2 µM)
Procedure, shortened: as §1

Cell Line | relative viability (BAM7 + Linsitinib; first compound 0.5 µM) | relative viability (BAM7 + Linsitinib; first compound 5 µM) | relative viability (BAM7 + Linsitinib; first compound 15.81 µM) | relative viability (BAM7 + Linsitinib; first compound 50 µM) | relative viability (BAM7 + Dasatinib; first compound 0.5 µM) | relative viability (BAM7 + Dasatinib; first compound 5 µM) | relative viability (BAM7 + Dasatinib; first compound 15.81 µM) | relative viability (BAM7 + Dasatinib; first compound 50 µM) | relative viability (BAM7 + Pemetrexed; first compound 0.5 µM) | relative viability (BAM7 + Pemetrexed; first compound 5 µM) | relative viability (BAM7 + Pemetrexed; first compound 15.81 µM) | relative viability (BAM7 + Pemetrexed; first compound 50 µM) | relative viability ([1]; first compound 0.01 µM) | relative viability ([1]; first compound 0.03162 µM) | relative viability ([1]; first compound 0.1 µM) | relative viability ([1]; first compound 0.3162 µM) | relative viability ([1]; first compound 1 µM)
NCI-H460 | 1.02 | 0.765 | 0.653 | 0.754 | 0.51 | 0.622 | 0.443 | 0.691 | 0.0639 | 0.0614 | 0.0597 | 0.0573 | 0.949 | 1.14 | 1.02 | 0.862 | 0.775
NCI-H1666 | 0.835 | 0.867 | 0.734 | 0.854 | 0.847 | 0.832 | 0.755 | 0.876 | 0.919 | 0.846 | 0.82 | 0.82 | 0.552 | 0.487 | 0.469 | 0.521 | 0.508
NCI-H1651 | 1.05 | 1.09 | 1.01 | 1.02 | 0.297 | 0.372 | 0.477 | 0.456 | 0.548 | 0.586 | 0.639 | 0.569 | 0.816 | 0.854 | 0.798 | 0.715 | 0.842
NCI-H1755 | 1.01 | 1.06 | 1.02 | 0.978 | 0.432 | 0.466 | 0.419 | 0.458 | 0.401 | 0.417 | 0.423 | 0.408 | 1.03 | 1.02 | 1.03 | 0.993 | 1.07
NCI-H661 | 0.672 | 0.605 | 0.433 | 0.601 | 0.991 | 0.965 | 0.759 | 0.962 | 0.949 | 0.973 | 0.921 | 0.917 | 0.505 | 0.539 | 0.249 | 0.502 | 0.489
HARA | 1.08 | 1.14 | 0.864 | 1.08 | 0.293 | 0.403 | 0.291 | 0.328 | 0.228 | 0.244 | 0.222 | 0.292 | 0.718 | 0.7 | 0.684 | 0.554 | 0.95
NCI-H596 | 1.05 | 1.15 | 1.02 | 1.14 | 0.621 | 0.644 | 0.578 | 0.632 | 0.544 | 0.498 | 0.452 | 0.559 | 0.935 | 0.954 | 0.92 | 0.901 | 0.986
NCI-H1563 | 1.22 | 1.19 | 1.13 | 1.24 | 0.438 | 0.497 | 0.484 | 0.41 | 0.778 | 0.853 | 0.813 | 0.633 | 0.93 | 0.94 | 0.924 | 0.926 | 0.781
NCI-H23 | 0.507 | 0.663 | 0.698 | 0.679 | 0.892 | 0.813 | 0.732 | 0.868 | 0.832 | 0.851 | 0.622 | 0.709 | 1.07 | 1.05 | 1.14 | 1.17 | 0.776
LCLC-97TM1 | 0.174 | 0.184 | 0.176 | 0.179 | 1.05 | 1.04 | 0.881 | 0.945 | 0.19 | 0.147 |  | 0.159 |  | 0.854 | 1.06 | 0.663 | 1.27
EPLC-272H | 1.45 | 1.11 | 1.33 | 1.24 | 0.369 |  | 0.346 | 0.434 | 0.328 | 0.371 | 0.401 | 0.322 | 0.905 | 0.998 | 0.907 | 0.788 | 0.909
NCI-H1915 | 1.08 | 1.2 | 1.08 | 1.1 | 0.321 | 0.327 | 0.279 | 0.303 | 0.425 | 0.505 | 0.524 | 0.46 | 0.981 | 0.889 | 0.956 | 0.927 | 0.973
NCI-H2405 | 1.02 | 0.881 | 0.865 | 1.09 | 0.195 | 0.201 | 0.211 | 0.243 | 1.11 | 1.06 | 1.09 | 1.11 | 1.11 | 1.06 |  | 1.01 | 1.02
NCI-H322M | 0.892 | 0.805 | 0.949 | 0.845 | 0.271 | 0.287 | 0.287 | 0.281 | 0.622 | 0.64 | 0.645 | 0.582 | 0.562 | 0.608 | 0.394 | 0.614 | 0.524
NCI-H1395 | 1.02 | 1.07 | 1.03 | 1.2 | 0.41 | 0.445 | 0.357 | 0.465 | 0.856 | 0.91 | 0.857 | 1.07 | 0.815 | 0.842 | 0.858 | 0.769 | 0.869
NCI-H358 | 0.782 | 0.878 | 0.704 | 0.787 | 0.202 | 0.217 | 0.197 | 0.254 |  | 0.177 | 0.166 | 0.159 | 0.453 | 0.485 | 0.449 | 0.4 | 0.398
NCI-H838 | 1.12 | 1.06 | 0.982 | 0.994 | 0.36 | 0.297 | 0.295 | 0.335 | 0.293 | 0.259 | 0.249 | 0.231 | 1.11 | 1.13 | 1.1 | 0.853 | 0.968
CAL-12T | 0.929 | 0.743 | 0.75 | 0.852 | 0.507 | 0.326 | 0.402 | 0.337 | 1.31 | 1.27 | 0.987 | 1.31 | 0.613 | 0.665 | 0.845 | 0.585 | 0.595
